# Results published in publication PMC1334386 (PLoS Biology, 2006).
# How the values were obtained:
# [1] = system: HAUSP TRAF-like domain (residues 1–206); experiment: gel filtration binding assay with HAUSP (residues 1–206); conditions: Superdex-200, 25 mM Tris pH 8.0, 100 mM NaCl, 2 mM DTT, 4 °C, SDS-PAGE/Coomassie, protein alone, no competitor
# Method: (§1) Size-exclusion chromatography (gel filtration), using a Superdex-200 column (10/30, Amersham Pharmacia Biotech, Piscataway, New Jersey, United States), was employed to carry out all the in vitro binding assays. Proteins subjected to binding tests were incubated at 4 °C for at least 45 min to allow equilibrium to be reached. The flow rate was 0.5 ml/min, and the buffer contained 25 mM Tris (pH 8.0), 100 mM NaCl, and 2 mM DTT. All fractions were collected at 0.5 ml each. Aliquots of relevant fractions were mixed with SDS sample buffer and subjected to SDS-polyacrylamide gel electrophoresis. The proteins were visualized by Coomassie Blue staining. The column was calibrated with molecular-mass standards.
# full-length HAUSP = experiment: gel filtration binding assay of MDM2 with full-length HAUSP; conditions: Superdex-200, 25 mM Tris pH 8.0, 100 mM NaCl, 2 mM DTT, 4 °C
# Method: as §1
# [2] = target: T1, HAUSP TRAF-like domain (residues 53–206) (Homo sapiens, UniProt Q93009); experiment: gel filtration binding assay of MDM2 fragments with HAUSP TRAF-like domain; conditions: Superdex-200, HAUSP residues 53–206, 25 mM Tris pH 8.0, 100 mM NaCl, 2 mM DTT, 4 °C
# T1 construct: GST (N); made in house; host or cells: Escherichia coli BL21(DE3), vector pGEX-2T
# Method: as §1
# T1 sequence (Q93009 53-206): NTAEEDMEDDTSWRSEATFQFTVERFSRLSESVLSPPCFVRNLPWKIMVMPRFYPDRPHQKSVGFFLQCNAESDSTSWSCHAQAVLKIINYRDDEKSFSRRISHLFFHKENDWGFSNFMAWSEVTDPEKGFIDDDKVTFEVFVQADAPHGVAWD
Substance,complex formation with HAUSP (residues 1–206) [1],complex formation with full-length HAUSP (full-length HAUSP),complex formation with HAUSP TRAF-like domain [2]
"MDM2 (residues 170–423): MDM2 fragment, residues 170–423",form a stable complex,,
MDM2 (residues 170–432): 33-kDa fragment of MDM2 (residues 170–432),,formed a stable complex,formed a stable complex
